Our source for the MIC and MBC values is US11691949B2, “Quinoline sulfonamide compounds and their use as antibacterial agents” (OTAGO INNOVATION LIMITED, priority 2017, dated 2023).

The term MIC denotes the lowest concentration that inhibits growth of the organism. One may read the MBC as the smallest concentration meeting the test's criterion for killing.

Converted amounts (≈) assume the structure as drawn. Like-named read-outs stand apart in the source and are kept apart here.

Type in all cases: cell-based
Experiment [1] concerns S. uberis ATCC 19436. Description: MIC by broth microdilution, S. uberis. The settings on record: Streptococcus uberis, read-out: S. uberis ATCC 19436 MIC. In a few lines:
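The MIC against S. uberis ATCC 19436 was the lowest compound concentration showing no growth by OD600 after 24 h at 37° C. with 200 rpm shaking. Cultures grown overnight were adjusted to OD600 ~0.025 so wells held approximately 5×10^5 cfu/mL in THB. Two-fold dilution series were made at a final volume of 200 μl. Media and untreated controls were run in triplicate on each plate.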
Background: Broth dilution looks for growth in wells or tubes with falling amounts of substance.

The next experiment deals with E. coli ATCC 10536. Description: MBC by Miles-Misra drop-plate method, E. coli. The settings on record: Escherichia coli, read-out: E. coli ATCC 10536 MBC. As to the method:
(§1) Antibacterial susceptibility testing was performed in triplicate (biological) by measuring minimum inhibitory concentrations (MICs) by broth microdilution in 96-well flat bottom microtiter plates (ThermoFisher Scientific, New Zealand). S. uberis ATCC 19436, S. aureus ATCC 6538, or E. coli ATCC 10596 cells grown overnight were diluted to an OD600 of approximately 0.025, so that the final concentration of cells in the MIC assay was approximately 5×10^5 cfu/mL in media as follows: S. uberis; Todd Hewitt Broth (THB), S. aureus; Tryptic Soy Broth (TSB) and Cation Adjusted Muller Hinton Broth (CAMHB), and E. coli; Lysogeny Borth (LB) and CAMHB, before being dispensed into microtiter wells. As required additional sterile Zinc Sulphate (Heptahydrate) was supplemented into the media, so the final concentration was 50 μM. Test compounds were added to starting wells and two-fold serial dilutions were undertaken to generate a range of inhibitor concentrations at a final volume of 200 μl. Media and test compound-free (untreated) controls were included in each microtiter plate in triplicate. After 24 h incubation at 37° C. and 200 rpm, the OD600 of wells were read using a Varioskan Flash plate reader (ThermoFisher Scientific, New Zealand). The MIC was reported as the lowest concentration of the test compound for which no growth occurred, as determined by OD600 readings. The minimum bactericidal concentration (MBC) was determined using the Miles-Misra drop-plate method to measure the viability of cells in response to test compound challenge.

Experiment [2] concerns S. aureus ATCC 6538. Description: MBC by Miles-Misra drop-plate method, S. aureus. The settings on record: Staphylococcus aureus, read-out: S. aureus ATCC 6538 MBC. The procedure: as §1
The test system of experiment [3] is S. uberis ATCC 19436. Description: MBC by Miles-Misra drop-plate method, S. uberis. The settings on record: Streptococcus uberis, read-out: S. uberis ATCC 19436 MBC. The procedure: as §1
For experiment [4], the system named is S. aureus ATCC 6538. Description: MIC by broth microdilution, S. aureus. As to conditions: Staphylococcus aureus, read-out: S. aureus ATCC 6538 MIC. The method, boiled down:
(§2)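 Media: TSB or CAMHB for S. aureus, LB or CAMHB for E. coli, with zinc sulphate to 50 μM final where required. Cells at ~5×10^5 cfu/mL met two-fold compound series; growth was scored by OD600 after 24 h shaking at 37° C.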

The next experiment has as its system E. coli ATCC 10596. Description: MIC by broth microdilution, E. coli. As to conditions: Escherichia coli, read-out: E. coli ATCC 10536 MIC. The method, boiled down: as §2
Where [5] appears, read: ATCC 10536 / ATCC 10596, No Zinc.
The mark [6] stands for this setting: ATCC 10536 / ATCC 10596, Zinc (50 μM).

Take `O=S(=O)(Nc1cccc2ccc(/C=N/NC(=S)NCCN3CCOCC3)nc12)c1ccc(C(F)(F)F)cc1` [ZDR119, (E)-N-(2-Morpholinoethyl)-2-((8-((4-(trifluoromethyl)phenyl)sulfonamido)quinolin-2-yl)methylene)hydrazine-1-carbothioamide]: the MIC is 4 µg/mL (≈ 7.06 µM) in the experiment with S. uberis ATCC 19436 [1] (ATCC19436, No Zinc); 0.125 µg/mL (≈ 0.221 µM) with S. uberis ATCC 19436 [1] (ATCC19436, Zinc (50 μM)); 4 µg/mL (≈ 7.06 µM) with S. aureus ATCC 6538 [4] (ATCC6538, No Zinc); 4 µg/mL (≈ 7.06 µM) in the experiment with S. aureus ATCC 6538 [4] (ATCC6538, Zinc (50 μM)); greater than 256 µg/mL with E. coli ATCC 10596 (setting [5]); greater than 256 µg/mL in the experiment on E. coli ATCC 10596 (setting [6]). The MBC with E. coli ATCC 10536 (ATCC10536, No Zinc) was greater than 256 µg/mL; in the experiment with E. coli ATCC 10536 (ATCC10536, Zinc (50 μM)), greater than 256 µg/mL; in the experiment with S. aureus ATCC 6538 [2] (ATCC6538, No Zinc), greater than 256 µg/mL; with S. aureus ATCC 6538 [2] (ATCC6538, Zinc (50 μM)), 32 µg/mL (≈ 56.5 µM); in the experiment with S. uberis ATCC 19436 [3] (ATCC19436, No Zinc), 16 µg/mL (≈ 28.2 µM); with S. uberis ATCC 19436 [3] (ATCC19436, Zinc (50 μM)) it was 1 µg/mL (≈ 1.76 µM).

As to `CC(=O)N/N=C/c1ccc2cccc(NS(=O)(=O)c3ccc(C(F)(F)F)cc3)c2n1` [ZDR120, (E/Z)—N-(2-((2-Acetylhydrazineylidene)methyl)quinolin-8-yl)-4-(trifluoromethyl)benzenesulfonamide], the MIC was 32 µg/mL (≈ 73.3 µM) in the experiment with S. uberis ATCC 19436 [1] (ATCC19436, No Zinc); 0.5 µg/mL (≈ 1.15 µM) in the experiment with S. uberis ATCC 19436 [1] (ATCC19436, Zinc (50 μM)); 16 µg/mL (≈ 36.7 µM) with S. aureus ATCC 6538 [4] (ATCC6538, No Zinc); 16 µg/mL (≈ 36.7 µM) in the experiment on S. aureus ATCC 6538 [4] (ATCC6538, Zinc (50 μM)); greater than 256 µg/mL in the experiment with E. coli ATCC 10596 (setting [5]); greater than 256 µg/mL in the experiment with E. coli ATCC 10596 (setting [6]). Also, the MBC with E. coli ATCC 10536 (ATCC10536, No Zinc) was greater than 256 µg/mL; with E. coli ATCC 10536 (ATCC10536, Zinc (50 μM)), greater than 256 µg/mL; in the experiment with S. aureus ATCC 6538 [2] (ATCC6538, No Zinc), greater than 256 µg/mL; in the experiment with S. aureus ATCC 6538 [2] (ATCC6538, Zinc (50 μM)), greater than 256 µg/mL; in the experiment with S. uberis ATCC 19436 [3] (ATCC19436, No Zinc) it was greater than 256 µg/mL; in the experiment with S. uberis ATCC 19436 [3] (ATCC19436, Zinc (50 μM)), 1 µg/mL (≈ 2.29 µM).

`O=C(N/N=C/c1ccc2cccc(NS(=O)(=O)c3ccc(C(F)(F)F)cc3)c2n1)c1cccnc1` [ZDR121, (E)-N-(2-((2-Nicotnoylhydrazineylidene)methyl)quinolin-8-yl)-4-(trifluoromethyl)benzenesulfonamide]: the MIC in the experiment on S. uberis ATCC 19436 [1] (ATCC19436, No Zinc) was 32 µg/mL (≈ 64.1 µM); in the experiment with S. uberis ATCC 19436 [1] (ATCC19436, Zinc (50 μM)), 2 µg/mL (≈ 4 µM); in the experiment with S. aureus ATCC 6538 [4] (ATCC6538, No Zinc) it was 16 µg/mL (≈ 32 µM); in the experiment with S. aureus ATCC 6538 [4] (ATCC6538, Zinc (50 μM)) it was 16 µg/mL (≈ 32 µM); in the experiment on E. coli ATCC 10596 (setting [5]), greater than 256 µg/mL; with E. coli ATCC 10596 (setting [6]), greater than 256 µg/mL. Moreover, the MBC in the experiment on E. coli ATCC 10536 (ATCC10536, No Zinc) was greater than 256 µg/mL; in the experiment on E. coli ATCC 10536 (ATCC10536, Zinc (50 μM)) it was greater than 256 µg/mL; with S. aureus ATCC 6538 [2] (ATCC6538, No Zinc), 64 µg/mL (≈ 128 µM); with S. aureus ATCC 6538 [2] (ATCC6538, Zinc (50 μM)) it was 256 µg/mL (≈ 513 µM); in the experiment on S. uberis ATCC 19436 [3] (ATCC19436, No Zinc) it was 256 µg/mL (≈ 513 µM); in the experiment with S. uberis ATCC 19436 [3] (ATCC19436, Zinc (50 μM)), 32 µg/mL (≈ 64.1 µM).

Consider `O=C(N/N=C/c1ccc2cccc(NS(=O)(=O)c3ccc(C(F)(F)F)cc3)c2n1)c1ccncc1` [ZDR122, (E)-N-(2-((2-Isonicotinoylhydrazneylidene)methyl)quinolin-8-yl)-4-(trifluoromethyl)benzenesulfonamide], for which the MIC is 32 µg/mL (≈ 64.1 µM) in the experiment on S. uberis ATCC 19436 [1] (ATCC19436, No Zinc); 2 µg/mL (≈ 4 µM) in the experiment on S. uberis ATCC 19436 [1] (ATCC19436, Zinc (50 μM)); 16 µg/mL (≈ 32 µM) in the experiment on S. aureus ATCC 6538 [4] (ATCC6538, No Zinc); 16 µg/mL (≈ 32 µM) in the experiment with S. aureus ATCC 6538 [4] (ATCC6538, Zinc (50 μM)); greater than 256 µg/mL with E. coli ATCC 10596 (setting [5]); greater than 256 µg/mL in the experiment with E. coli ATCC 10596 (setting [6]). In addition, the MBC in the experiment with E. coli ATCC 10536 (ATCC10536, No Zinc) was greater than 256 µg/mL; with E. coli ATCC 10536 (ATCC10536, Zinc (50 μM)), greater than 256 µg/mL; with S. aureus ATCC 6538 [2] (ATCC6538, No Zinc) it was 32 µg/mL (≈ 64.1 µM); in the experiment on S. aureus ATCC 6538 [2] (ATCC6538, Zinc (50 μM)), 128 µg/mL (≈ 256 µM); with S. uberis ATCC 19436 [3] (ATCC19436, No Zinc), 128 µg/mL (≈ 256 µM); in the experiment with S. uberis ATCC 19436 [3] (ATCC19436, Zinc (50 μM)) it was 32 µg/mL (≈ 64.1 µM).

As for `O=S(=O)(Nc1cccc2ccc(/C=N/O)nc12)c1ccc(C(F)(F)F)cc1` [ZDR125, (E)-N-(2-((Hydroxyimino)methyl)quinolin-8-yl)-4-(trifluoromethyl)benzenesulfonamide], the MIC in the experiment with S. uberis ATCC 19436 [1] (ATCC19436, No Zinc) is 8 µg/mL (≈ 20.2 µM); with S. uberis ATCC 19436 [1] (ATCC19436, Zinc (50 μM)), 0.125 µg/mL (≈ 0.316 µM); with S. aureus ATCC 6538 [4] (ATCC6538, No Zinc), 4 µg/mL (≈ 10.1 µM); in the experiment with S. aureus ATCC 6538 [4] (ATCC6538, Zinc (50 μM)), 4 µg/mL (≈ 10.1 µM); in the experiment with E. coli ATCC 10596 (setting [5]), greater than 256 µg/mL; with E. coli ATCC 10596 (setting [6]), greater than 256 µg/mL. Moreover, the MBC in the experiment with E. coli ATCC 10536 (ATCC10536, No Zinc) was greater than 256 µg/mL; in the experiment on E. coli ATCC 10536 (ATCC10536, Zinc (50 μM)), greater than 256 µg/mL; in the experiment with S. aureus ATCC 6538 [2] (ATCC6538, No Zinc), greater than 256 µg/mL; with S. aureus ATCC 6538 [2] (ATCC6538, Zinc (50 μM)), greater than 256 µg/mL; in the experiment with S. uberis ATCC 19436 [3] (ATCC19436, No Zinc), 8 µg/mL (≈ 20.2 µM); in the experiment with S. uberis ATCC 19436 [3] (ATCC19436, Zinc (50 μM)), 0.5 µg/mL (≈ 1.26 µM).
